Test results as given in PubChem BioAssay AID1845216 (Molecular Pharmacology Branch, DTP, NCI, 2023).

Test system: SW 982 tumor spheroid viability
Assay: Anticancer human tumor SW 982 cell line growth inhibition;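 also: spheroids exposed to compound for 7 days before readout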
Details: spheroids with HUVEC and MSC; for viability, T/C: stronger effect = lower value
Outline: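 Complex tumor spheroids combined malignant cells with endothelial cells and mesenchymal stem cells. DNA-damaging drugs and DNA repair inhibitors were tested alone and in combination, at half-log dilutions down from clinical Cmax (top 10 microM if Cmax unknown), 0.25% DMSO final.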

[1] = curve of first compound, second compound 30 pM
[2] = curve of first compound, second compound 94.9 pM
[3] = curve of first compound, second compound 0.0003 µM
[4] = curve of first compound, second compound 0.000949 µM
[5] = curve of first compound, second compound 0.003 µM
[6] = second compound 30 pM, first compound 0.0316 µM
[7] = second compound 30 pM, first compound 0.1 µM
[8] = second compound 30 pM, first compound 0.316 µM
[9] = second compound 30 pM, first compound 1 µM
[10] = second compound 30 pM, first compound 3.16 µM
[11] = second compound 30 pM, first compound 10 µM
[12] = second compound 94.9 pM, first compound 0.0316 µM
[13] = second compound 94.9 pM, first compound 0.1 µM
[14] = second compound 94.9 pM, first compound 0.316 µM
[15] = second compound 94.9 pM, first compound 1 µM
[16] = second compound 94.9 pM, first compound 3.16 µM
[17] = second compound 94.9 pM, first compound 10 µM
[18] = second compound 0.0003 µM, first compound 0.0316 µM
[19] = second compound 0.0003 µM, first compound 0.1 µM
[20] = second compound 0.0003 µM, first compound 0.316 µM
[21] = second compound 0.0003 µM, first compound 1 µM
[22] = second compound 0.0003 µM, first compound 3.16 µM
[23] = second compound 0.0003 µM, first compound 10 µM
[24] = second compound 0.000949 µM, first compound 0.0316 µM
[25] = second compound 0.000949 µM, first compound 0.1 µM
[26] = second compound 0.000949 µM, first compound 0.316 µM
[27] = second compound 0.000949 µM, first compound 1 µM
[28] = second compound 0.000949 µM, first compound 3.16 µM
[29] = second compound 0.000949 µM, first compound 10 µM
[30] = second compound 0.003 µM, first compound 0.0316 µM
[31] = second compound 0.003 µM, first compound 0.1 µM
[32] = second compound 0.003 µM, first compound 0.316 µM
[33] = second compound 0.003 µM, first compound 1 µM
[34] = second compound 0.003 µM, first compound 3.16 µM
[35] = second compound 0.003 µM, first compound 10 µM

## Cc1cc(C)c(CNC(=O)c2cc(-c3ccc(CN4CCOCC4)cc3)cc3c2cnn3C2CCCC2)c(=O)[nH]1 + COc1cc2c(cc1O)CCNC21CSC2c3c(OC(C)=O)c(C)c4c(c3C(COC1=O)N1C(O)C3Cc5cc(C)c(OC)c(O)c5C(C21)N3C)OCO4
[1]
  IC50: > 10 µM
[2]
  IC50: > 10 µM
[3]
  IC50: 10 µM
[4]
  IC50: < 0.0316 µM
[5]
  IC50: < 0.0316 µM
[6]
  viability, T/C: 97.9%
[7]
  viability, T/C: 99.7%
[8]
  viability, T/C: 104%
[9]
  viability, T/C: 96.7%
[10]
  viability, T/C: 92%
[11]
  viability, T/C: 66.7%
[12]
  viability, T/C: 95.4%
[13]
  viability, T/C: 106%
[14]
  viability, T/C: 102%
[15]
  viability, T/C: 103%
[16]
  viability, T/C: 88.4%
[17]
  viability, T/C: 57.9%
[18]
  viability, T/C: 74.7%
[19]
  viability, T/C: 76%
[20]
  viability, T/C: 84%
[21]
  viability, T/C: 80.7%
[22]
  viability, T/C: 71.5%
[23]
  viability, T/C: 49.8%
[24]
  viability, T/C: 35.7%
[25]
  viability, T/C: 39.9%
[26]
  viability, T/C: 37.5%
[27]
  viability, T/C: 36.1%
[28]
  viability, T/C: 27.6%
[29]
  viability, T/C: 17.8%
[30]
  viability, T/C: 0.71%
[31]
  viability, T/C: 0.36%
[32]
  viability, T/C: 0.51%
[33]
  viability, T/C: 0.31%
[34]
  viability, T/C: 0.29%
[35]
  viability, T/C: 0.83%

## Cn1nnc2c(C(N)=O)ncn2c1=O
Compound 1 µM
  viability, T/C: 96.1% [middle of 10 runs]
Compound 3.16 µM
  viability, T/C: 90.9% [middle of 10 runs]
Compound 10 µM
  viability, T/C: 79.1% [middle of 10 runs]
Compound 31.6 µM
  viability, T/C: 69.1% [middle of 10 runs]
Compound 100 µM
  viability, T/C: 57.1% [middle of 10 runs]
Compound alone, run of 12/02/2019
  IC50: > 100 µM

## COc1cc(C)[nH]c(=O)c1CN1CCc2c(Cl)cc(C(OC)C3COC3)c(Cl)c2C1=O (stereo unspecified) + COc1cc2c(cc1O)CCNC21CSC2c3c(OC(C)=O)c(C)c4c(c3C(COC1=O)N1C(O)C3Cc5cc(C)c(OC)c(O)c5C(C21)N3C)OCO4
[1]
  IC50: > 10 µM
[2]
  IC50: > 10 µM
[3]
  IC50: > 10 µM
[4]
  IC50: < 0.0316 µM
[5]
  IC50: < 0.0316 µM
[6]
  viability, T/C: 98.5%
[7]
  viability, T/C: 107%
[8]
  viability, T/C: 90.2%
[9]
  viability, T/C: 97.7%
[10]
  viability, T/C: 102%
[11]
  viability, T/C: 107%
[12]
  viability, T/C: 90.5%
[13]
  viability, T/C: 95.6%
[14]
  viability, T/C: 95.7%
[15]
  viability, T/C: 103%
[16]
  viability, T/C: 99.8%
[17]
  viability, T/C: 91.7%
[18]
  viability, T/C: 86.9%
[19]
  viability, T/C: 82.9%
[20]
  viability, T/C: 89.1%
[21]
  viability, T/C: 91.3%
[22]
  viability, T/C: 84.7%
[23]
  viability, T/C: 85.3%
[24]
  viability, T/C: 38.3%
[25]
  viability, T/C: 48.7%
[26]
  viability, T/C: 38%
[27]
  viability, T/C: 45.6%
[28]
  viability, T/C: 47.3%
[29]
  viability, T/C: 28.3%
[30]
  viability, T/C: 0.42%
[31]
  viability, T/C: 0.99%
[32]
  viability, T/C: 0.77%
[33]
  viability, T/C: 0.49%
[34]
  viability, T/C: 0.64%
[35]
  viability, T/C: 1.1%
